According to patent US20160326143A1, “COMPOUNDS AND USES” (AstraZeneca AB, priority 2015, published 2016):

Experiments:
[1] = target: Recombinant human LTC4 synthase (Homo sapiens (Human), UniProt Q16873); test: In vitro hLTC4 synthase enzyme assay (Test A); assay type: biochemical; conditions: Test A (Examples 1-61); substrate LTA4, LTC4 detected by HTRF; median of at least two determinations
Procedure: In Vitro hLTC4 Synthase Enzyme Assay (Test A)
Recombinant human LTC4 synthase is expressed in Piccia pastoralis and the purified enzyme is dissolved in 25 mM tris-buffer pH 7.8 supplemented with 0.1 mM glutathione (GSH) and stored at −80° C.
The buffer is used as background. Runs are performed in duplicates.
The reaction is stopped after 1 min by addition of double the reaction volume of a stop solution (MeOH:H2O:acetic acid 70:30:1).
After 15 fold dilution in PBS, LTC4 formation is detected with LTC4 HTRF kit (Cisbio, cat. No 64LC4PEC) and a fluorescence reader. Typically 6 μL of sample is mixed with 3 μL of each of the HTRF reagents d2 and k and analyzed as described in the kit manual.

[2] = target: human recombinant purified LTC4 synthase (Homo sapiens (Human), UniProt Q16873); conditions: read-out: hLTC4 synthase IC50; Test B (Examples 62-65); substrate LTA4 methyl ester, product detected by LCMSMS; median of at least two determinations
human recombinant purified LTC4 synthase, sequence (Q16873 whole entry): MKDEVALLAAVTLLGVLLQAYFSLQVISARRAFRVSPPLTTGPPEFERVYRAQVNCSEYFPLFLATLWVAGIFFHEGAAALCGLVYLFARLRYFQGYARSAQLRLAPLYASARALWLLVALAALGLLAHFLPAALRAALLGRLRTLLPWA

Recombinant human LTC4 synthase, sequence (Q16873 whole entry): as above

Structure (SMILES) | IC50 [1] | IC50 [2]
COc1cc(N(CC2CC2)c2ccc3cccc4c3c2CC4)cnc1C(=O)C1CC1C(=O)O (stereo not drawn) [Example 38, 2-(5-((Cyclopropylmethyl)(1,2-dihydroacenaphthylen-3-yl)amino)-3-methoxypicolinoyl)cyclopropanecarboxylic acid] | 31 nM | 
COc1cc(N(CC2CC2)c2ccc(Cl)cc2)cnc1C(=O)C1CC1C(=O)NS(=O)(=O)C1CC1 (stereo not drawn) [Example 40, 2-(5-((4-Chlorophenyl)(cyclopropylmethyl)amino)-3-methoxypicolinoyl)-N-(cyclopropylsulfonyl)-cyclopropanecarboxamide] | 356 nM | 
COc1ccc(S(=O)(=O)NC(=O)C2CC2C(=O)c2ncc(N(CC3CC3)c3ccc(Cl)cc3)cc2OC)cc1 (stereo not drawn) [Example 41, 2-(5-((4-Chlorophenyl)(cyclopropylmethyl)amino)-3-methoxypicolinoyl)-N-((4-methoxyphenyl)sulfonyl)-cyclopropanecarboxamide] | 81 nM | 
COc1cc(N(CC2CC2)c2ccc(Cl)cc2)cnc1C(=O)C1CC1C(=O)NS(=O)(=O)c1ccc(OC(F)(F)F)cc1 (stereo not drawn) [Example 42, 2-(5-((4-Chlorophenyl)(cyclopropylmethyl)amino)-3-methoxypicolinoyl)-N-((4-(trifluoromethoxy)phenyl)-sulfonyl)cyclopropanecarboxamide] | 277 nM | 
COc1cc(N(CC2CC2)c2ccc(Cl)cc2)cnc1C(=O)C1CC1C(=O)NS(=O)(=O)c1ccccc1F (stereo not drawn) [Example 43, 2-(5-((4-Chlorophenyl)(cyclopropylmethyl)amino)-3-methoxypicolinoyl)-N-((2-fluorophenyl)sulfonyl)-cyclopropanecarboxamide] | 74 nM | 
COc1cc(N(CC2CC2)c2ccc(C)c3ccccc23)ccc1C(=O)C1CC1C(=O)O (stereo not drawn) [Example 45, 2-(4-((Cyclopropylmethyl)(4-methylnaphthalen-1-yl)amino)-2-methoxybenzoyl)cyclopropanecarboxylic acid] | 62 nM | 
COc1cc(N(CC2CC2)c2ccc(F)c3ccccc23)ccc1C(=O)C1CC1C(=O)O (stereo not drawn) [Example 46, 2-(4-((Cyclopropylmethyl)(4-fluoronaphthalen-1-yl)amino)-2-methoxybenzoyl)cyclopropanecarboxylic acid] | 26 nM | 
COc1cc(N(CC2CC2)c2ccc(Cl)c3ccccc23)ccc1C(=O)C1CC1C(=O)O (stereo not drawn) [Example 47, 2-(4-((4-Chloronaphthalen-1-yl)(cyclopropylmethyl)amino)-2-methoxybenzoyl)cyclopropanecarboxylic acid] | 61 nM | 
COc1cc(N(CC2CC2)c2cccc3ccccc23)ccc1C(=O)C1CC1C(=O)O (stereo not drawn) [Example 48, 2-(4-((Cyclopropylmethyl)(naphthalen-1-yl)amino)-2-methoxybenzoyl)cyclopropanecarboxylic acid] | 46 nM | 
COc1cc(N(CC2CC2)c2ccc(Cl)cc2)ccc1C(=O)C1CC1C(=O)O (stereo not drawn) [Example 49, 2-(4-((4-Chlorophenyl)(cyclopropylmethyl)amino)-2-methoxybenzoyl)cyclopropanecarboxylic acid] | 65 nM | 
COc1cc(N(CC2CC2)c2ccc(C)c(C)c2)ccc1C(=O)C1CC1C(=O)O (stereo not drawn) [Example 50, 2-(4-((Cyclopropylmethyl)(3,4-dimethylphenyl)amino)-2-methoxybenzoyl)cyclopropanecarboxylic acid] | 75 nM | 
COc1cc(N(Cc2ccc(Cl)cc2)CC2CC2)ccc1C(=O)C1CC1C(=O)O (stereo not drawn) [Example 51, 2-(4-((4-Chlorobenzyl)(cyclopropylmethyl)amino)-2-methoxybenzoyl)cyclopropanecarboxylic acid] | 68 nM | 
COc1cc(N(CC2CC2)c2ccc(C)c3ncccc23)ccc1C(=O)C1CC1C(=O)O (stereo not drawn) [Example 52, 2-(4-((Cyclopropylmethyl)(8-methylquinolin-5-yl)amino)-2-methoxybenzoyl)cyclopropanecarboxylic acid] | 359 nM | 
COc1cc(N(CC2CC2)c2ccc(C(F)(F)F)c3cccnc23)ccc1C(=O)C1CC1C(=O)O (stereo not drawn) [Example 53, 2-(4-((Cyclopropylmethyl)(5-(trifluoromethyl)quinolin-8-yl)amino)-2-methoxybenzoyl)cyclopropanecarboxylic acid] | 152 nM | 
O=C(O)C1CC1C(=O)c1ccc(N(CC2CC2)c2ccc(Cl)cc2)cn1 (stereo not drawn) [Example 54, 2-(5-((4-Chlorophenyl)(cyclopropylmethyl)amino)picolinoyl)cyclopropanecarboxylic acid] | 424 nM | 
O=C(O)C1CC1C(=O)c1ccc(N(Cc2ccc(Cl)cc2)CC2CC2)cn1 (stereo not drawn) [Example 55, 2-(5-((4-Chlorobenzyl)(cyclopropylmethyl)amino)picolinoyl)cyclopropanecarboxylic acid] | 636 nM | 
COc1nc(C(=O)C2CC2C(=O)O)ncc1N(CC1CC1)c1ccc(Cl)c2ccccc12 (stereo not drawn) [Example 56, 2-(5-((4-Chloronaphthalen-1-yl)(cyclopropylmethyl)amino)-4-methoxypyrimidine-2-carbonyl)cyclopropanecarboxylic acid] | 17 nM | 
COc1nc(C(=O)C2CC2C(=O)O)ncc1N(CC1CC1)c1cccc2ccccc12 (stereo not drawn) [Example 57, 2-(5-((Cyclopropylmethyl)(naphthalen-1-yl)amino)-4-methoxypyrimidine-2-carbonyl)cyclopropanecarboxylic acid] | 50 nM | 
COc1nc(C(=O)C2CC2C(=O)O)ncc1N(CC1CC1)c1ccc(F)c2ccccc12 (stereo not drawn) [Example 58, 2-(5-((Cyclopropylmethyl)(4-fluoronaphthalen-1-yl)amino)-4-methoxypyrimidine-2-carbonyl)cyclopropanecarboxylic acid] | 19 nM | 
COc1nc(C(=O)C2CC2C(=O)O)ncc1N(CC1CC1)c1ccc(C)c2ccccc12 (stereo not drawn) [Example 59, 2-(5-((Cyclopropylmethyl)(4-methylnaphthalen-1-yl)amino)-4-methoxypyrimidine-2-carbonyl)cyclopropanecarboxylic acid] | 18 nM | 
COc1cc(N(CC2CC2)c2cccc3ccccc23)cnc1C(=O)C1CC1c1nnn[nH]1 (stereo not drawn) [Example 60, (2-(1H-Tetrazol-5-yl)cyclopropyl)(5-((cyclopropylmethyl)(naphthalen-1-yl)amino)-3-methoxypyridin-2-yl)methanone] | 96 nM | 
COc1cc(N(CC2CC2)c2ccc(F)c3ccccc23)cnc1C(=O)C1CC1c1nnn[nH]1 (stereo not drawn) [Example 61, (2-(1H-Tetrazol-5-yl)cyclopropyl)(5-((cyclopropylmethyl)(4-fluoronaphthalen-1-yl)amino)-3-methoxypyridin-2-yl)methanone] | 39 nM | 
COc1nc(N(CC(C)(C)F)c2cc(C(F)(F)F)ccc2F)cnc1C(=O)[C@H]1C[C@@H]1C(=O)O [Example 63, (1S,2S)-2-[(5-{(2-Fluoro-2-methylpropyl)[2-fluoro-5-(trifluoromethyl)phenyl]amino}-3-methoxypyrazin-2-yl)carbonyl]cyclopropanecarboxylic acid] |  | 0.248 nM
COc1cc(N(CC(C)C)c2cc(C(F)(F)F)ccc2F)cnc1C(=O)[C@H]1C[C@@H]1C(=O)O [Example 65, (1S,2S)-2-[(5-{[2-Fluoro-5-(trifluoromethyl)phenyl](2-methylpropyl)amino}-3-methoxypyridin-2-yl)carbonyl]cyclopropanecarboxylic acid] |  | 0.658 nM
